{
  "source": "patent US12630544B2",
  "about": "“Compound, α-synuclein aggregate binder, and use thereof” (NATIONAL INSTITUTES FOR QUANTUM SCIENCE AND TECHNOLOGY, priority 2020, dated 2026)",
  "key": {"α-synuclein aggregates [1]": {"test_system": "α-synuclein aggregates", "assay": "In vivo PET imaging of α-synuclein fibril-inoculated marmoset brain", "details": "intravenous injection"}, "[2]": {"assay": "Ex vivo imaging (autoradiography) of brain of physiological saline-injected mouse", "format": "in vivo", "details": "intravenous, brain collected 40 minutes after administration", "description": "A physiological saline-injected mouse was anesthetized with 1.5% (v/v) isoflurane. Then, [^18F]SPAL-T-06 (28.9 MBq) was intravenously injected into the physiological saline-injected mouse. Forty minutes after the administration of [^18F]SPAL-T-06, the brain was collected and frozen. In a cryostat (HM560), frozen coronal sections each having a thickness of 20 μm and respectively including positions at 0.50 mm, −0.46 mm, −1.94 mm, −3.16 mm, and −6.64 mm from the bregma were prepared. Each section was air-dried, and then placed in contact with an imaging plate for 15 minutes in a cassette. Thereafter, autoradiographs were obtained with use of BAS-5000 (Fuji Film)."}, "[3]": {"molecular_target": "T1, lesions caused by phosphorylated α-synuclein (Homo sapiens, UniProt P37840)", "T1 construct": "α-synuclein aggregates formed in the brain of the DLB patient; from tissue; host or cells: post-mortem human brain: amygdala of DLB patient (sections or homogenate); cerebellum of MSA patient", "assay": "In vitro autoradiography of human brain sections (DLB, MSA, healthy subject)", "format": "binding", "details": "10 nM", "description": "Postmortem human brains were obtained in autopsies carried out with respect to a DLB patient, a multiple system atrophy (MSA) patient, and a healthy subject. In a cryostat (HM560, Carl Zeiss), frozen tissue from the DLB patient and frozen tissue from the healthy subject were sliced into sections each having a thickness of 20 μm. Brain tissue from the MSA patient was fixed in 10% neutral buffered formalin, embedded in a paraffin block, and sliced into sections each having a thickness of 6 μm.\nPostfixed fresh frozen sections of amygdala tissue from the brain of the DLB patient and the frontal cortex tissue from the brain of the healthy subject and deparaffinized sections of formalin-fixed paraffin-embedded cerebellum tissue from the brain of the MSA patient were used. Each brain tissue section and [^18F]SPAL-T-06 (final concentration: 10 nM) were incubated in 50 mM Tris-HCl containing 20% ethanol at room temperature for 1 hour. In order to detect specific binding, the brain tissue section was also incubated in 50 mM Tris-HCl (containing 20% ethanol) containing [^18F]SPAL-T-06 (final concentration: 10 nM) and non-labeled SPAL-T-06 (final concentration: 10 μM). Subsequently, the section was washed with 50 mM Tris-HCl (containing 20% EtOH) at 4° C. for 2 minutes. This washing was carried out twice. Thereafter, the section was rinsed with MilliQ. […]"}, "α-synuclein aggregates [4]": {"molecular_target": "T2, α-synuclein aggregates (Mus musculus, UniProt O55042)", "T2 construct": "from tissue; host or cells: brain of C57/BL/6 mouse inoculated in the striatum with recombinant (E. coli) mouse α-synuclein fibrils; sections or living animal", "assay": "In vivo PET imaging of mouse brain (α-synuclein fibril-inoculated mouse vs physiological saline-injected mouse)", "details": "α-synuclein fibril-inoculated model mouse, intravenous injection", "description": "First, mouse α-synuclein was expressed in and extracted from E. coli as a recombinant protein, and then incubated in vitro to form insoluble α-synuclein aggregates. The α-synuclein aggregates were then inoculated into the striatum of a mouse. […] Note that the inoculation of the α-synuclein aggregates into the striatum of the mouse was carried out in the following manner. First, hair on the head of a 9-week-old C57/BL/6 male mouse which had been anesthetized with 1.5% (v/v) isoflurane was removed, and the scalp was disinfected with isodine, followed by application of xylocaine and incision in the scalp to expose the skull. Then, a hole was drilled in the skull at a position of 0.05 mm posterior to the bregma and 2 mm lateral to the midline, and 3 μl of an α-synuclein fibril solution (mouse α-synuclein fibril (4 mg/ml) in saline) was injected into a position […] ventral to the brain surface with use of a glass pipette. The scalp was then returned and sutured.\nPET scanning was carried out with use of a micro PET Focus 220 animal scanner (Siemens Medical Solutions), which provided 95 slices each having a thickness of 0.851 mm (center thickness), a […]. Before the scanning, an α-synuclein fibril-inoculated mouse and a physiological saline-injected mouse (control) were each anesthetized with 1.5% (v/v) isoflurane. […]"}, "[5]": {"molecular_target": "homogenate of the brain of the AD patient (tau aggregates or amyloid β aggregates)", "assay": "In vitro binding test, homogenate of the brain of the AD patient", "set-up": "species or system human", "details": "[18F]SPAL-T-06 5 nM displaced by non-labeled SPAL-T-06 0.01 nM to 1 μM; frontal cortex; room temperature 30 minutes", "description": "(§1) Fresh frozen tissue from the amygdala in the brain of a DLB patient and fresh frozen tissue from the frontal cortex in the brain of an AD patient were used. To each fresh frozen brain tissue, zirconia beads (ZB-20, TOMY) and a buffer solution which was 10 times the wet weight of the tissue were added. A mixture thus obtained was smashed with use of Micro Smash (MS-100R, TOMY) and then stored at −80° C. A homogenate of the brain of the DLB patient or a homogenate of the brain of the AD patient, [^18F]SPAL-T-06 (final concentration: 5 nM), and non-labeled SPAL-T-06 (final concentration: 0.01 nM to 1 μM) were mixed into a Tris-HCl buffer solution (containing 20% ethanol). Incubation was carried out at room temperature for 30 minutes, and then B/F separation (B: bound ligand, F: free ligand) was carried out by suction filtration and washing. Thereafter, radioactivity captured on a glass filter was measured with use of a gamma counter (2480WIZARD2, ParkinElmer). With regard to the concentration of each non-labeled SPAL-T-06, a test was carried out in triplicate. Results were analyzed with use of Prism 6J (GraphPad), displacement curves of the tested compounds were obtained, and then IC50 of each was calculated."}, "[6]": {"molecular_target": "T3, homogenate of the brain of the DLB patient which was rich in α-synuclein lesions (Homo sapiens, UniProt P37840)", "T3 construct": "α-synuclein aggregates formed in the brain of the DLB patient; from tissue; host or cells: post-mortem human brain: amygdala of DLB patient (sections or homogenate); cerebellum of MSA patient", "assay": "In vitro binding test, homogenate of the brain of the DLB patient", "description": "as §1"}},
  "data": [
    {"smiles": "CNc1cnc(C#C/C=C/c2nc3ccc(OCC(O)C[18F])cc3s2)cn1", "note": "(centres unmarked) [[^18F]SPAL-T-06, [^18F]-(E)-1-fluoro-3-((2-(4-(5-(methylamino)pyrazin-2-yl)but-1-en-3-yn-1-yl)benzo[d]thiazol-6-yl)oxy)propan-2-ol]", "values": [
      {"measurement": "accumulation in the caudate nucleus rich in α-synuclein lesions (PET)", "setting": "α-synuclein aggregates [1]", "value": "clear accumulation"},
      {"measurement": "nonspecific accumulation in the white matter area (ex vivo autoradiography)", "setting": "[2]", "value": "not seen"},
      {"measurement": "binding to areas rich in lesions caused by phosphorylated α-synuclein (autoradiography)", "setting": "[3]; DLB amygdala and MSA cerebellum sections, 1 hour", "value": "bound to areas in the brains of the DLB patient and the MSA patient which were rich in lesions caused by phosphorylated α-synuclein"},
      {"measurement": "non-specific binding in gray matter and white matter of healthy subject frontal cortex (autoradiography)", "setting": "[3]; section of frontal cortex of healthy subject", "value": "hardly observed"},
      {"measurement": "accumulation in striatum and cerebral cortex rich in α-synuclein lesions (PET)", "setting": "α-synuclein aggregates [4]", "value": "clear accumulation"},
      {"measurement": "IC50", "setting": "[5]", "value": 10.9, "unit": "nM"},
      {"measurement": "binding selectivity with respect to α-synuclein aggregates versus tau or amyloid β aggregates (homogenate binding)", "setting": "[6]; DLB versus AD brain homogenate", "value": "high binding selectivity"},
      {"measurement": "IC50", "setting": "[6]; [18F]SPAL-T-06 5 nM displaced by non-labeled SPAL-T-06 0.01 nM to 1 μM, amygdala, room temperature 30 minutes", "value": 1.58, "unit": "nM"}
    ]}
  ]
}
